Experimental data: patent US8021686B2, “Lipid-encapsulated polyanionic nucleic acid” (The University of British Columbia, priority 1997, dated 2011)

Key:
[1] = Assessment of antisense encapsulation (encapsulation efficiency, drug:lipid ratio); format: physicochemical
Procedure: drug to lipid ratio: The amount of drug (therapeutic agent) in a defined volume of preparation divided by the amount of lipid in the same volume. This may be on a mole per mole basis or on a weight per weight basis, or on a weight per mole basis. For final, administration-ready formulations, the drug:lipid ratio is calculated after dialysis, chromatography and/or enzyme (e.g., nuclease) digestion has been employed to remove as much of the external therapeutic agent (e.g., nucleic acid) as possible.
encapsulation efficiency: the drug to lipid ratio of the starting mixture divided by the drug to lipid ratio of the final, administration competent formulation. This is a measure of relative efficiency. For a measure of absolute efficiency, the total amount of therapeutic agent (nucleic acid) added to the starting mixture that ends up in the administration competent formulation, can also be calculated. The amount of lipid lost during the formulation process may also be calculated. […]
Antisense encapsulation was typically assessed by dual label ([^3H]-antisense and [^14C]-lipid) liquid scintillation counting after gel filtration chromatography to separate the free and encapsulated antisense. Antisense encapsulation was evaluated by summing the total [^3H]-antisense radioactivity associated with the lipid peak and dividing by the total [^3H]-antisense radioactivity. […]

[2] = system: MDA-MB-453 human breast carcinoma; experiment: Tumor window model, human breast tumor; format: in vivo, mouse; conditions: i.v. 10 mg/kg/administration, 3 administrations/week
Source text: The human breast carcinoma line MDA-MB-453 was implanted in a mouse tumor window model according to the method of Wu, N. Z., Da, D., Rudoll, T. L., Needham, D., Whorton, R. & Dewhirst, M. W. 1993. Increased microvascular permeability contributes to preferential accumulation of Stealth liposomes in tumor tissue. Cancer Research 53: 3765-3770; and Dewhirst, M. W., Tso, C. Y., Oliver, R., Gustafson, C. S., Secomb, T. W. & Gross, J. F. 1989. Morpholigic and hemodynamic comparison of tumor and healing normal tissue microvasculature. Int. J. Radiat. Oncol. Biol. Phys. 17: 91-99. See also Dewhirst, M W., and Needham, D. 1995. Extravasation of Stealth Liposomes into Tumors: Direct Measurement of Accumulation and Vascular Permeability using a Skin Flap Window Chamber. In Stealth Liposomes (Eds. Lasic, D. and Martin, F.) CRC Press.
In vivo efficacy evaluation: When the tumor in the window has reached a diameter of 2-3 mm, treatment with free or TCS-encapsulated US3 oligonucleotide is initiated. Treatment consists of a 200 ul intravenous administration (tail vein) of either free US3 or TCS-encapsulated US3 on a 3 administrations/week schedule and an antisense dose of 10 mg/kg/administration. Tumor size is monitored 3 times per week by microscopy.

ICAM-1 gene = experiment: Ear inflammation model (DNFB contact sensitivity); format: in vivo, ICR mice; conditions: lipid-encapsulated antisense, i.v. 20-30 mg/kg 15 min after DNFB, 24 hours
Procedure: Mice were sensitized by applying 25 μL of 0.5% 2,4-dinitro-1-fluorobenzene (DNFB) in acetone: olive oil (4:1) to the shaved abdominal wall for two consecutive days. Four days after the second application, mice were challenged on the dorsal surface of the left ear with 10 μL of 0.2% DNFB in acetone:olive oil (4:1). Mice received no treatment on the contralateral (right) ear. In some cases, control mice received 10 μL of vehicle on the dorsal surface of the left ear.
Ear thickness was measured immediately prior to ear challenge, and at various time intervals after DNFB challenge, using an engineer's micrometer (Mitutoyo, Tokyo, Japan). Increases in ear thickness measurements were determined by subtracting the pre-challenge from post-challenge measurements.
Inflamed mice were treated at the time of ear challenge with a 30 mg/kg i.v. dose of either HBS (no oligo), EPC:CHOL liposomes with entrapped PS-3082 (identified as AS 1000), POPC:CHOL:DODAP:PEG-CerC14 with entrapped PS-3082 (identified as AS 4100), or DSPC:CHOL:DODAP:PEG-CerC14 with entrapped PS-3082 (identified as AS 4200). Ear swelling was measured at 24 hours after initiating inflammation using an engineer's micrometer.
Antisense Sample Preparation: Antisense was encapsulated using the standard methods of Examples 5-9, using the phosphodiester modification. […]

pKa of amino lipid = format: physicochemical

PO-2302: human ICAM-1 phosphodiester antisense GCCCAAGCTGGCATCCGTCA (SEQ ID No 2) (DNA, all phosphodiester, methylation of C not given here)
final (administration ready) drug:lipid ratios ([1]; citrate varied, DSPC:CHOL:DODAP:PEG-CerC14 25:45:20:10): greater than 10 % by weight

US3: anti-human erb-B-2 antisense GGT GCT CAC TGC GGC (SEQ ID No 3) (antisense GGTGCTCACTGCGGC; all phosphorothioate, sugars by position and methylation of C not given here)
effect on tumor growth [2]: ineffective at inhibiting tumor growth

PO-3082: murine ICAM-1 phosphodiester antisense TGCATCCCCCAGGCCACCAT (SEQ ID No 1) (DNA, all phosphodiester, methylation of C not given here)
reduction of the degree of inflammation (ICAM-1 gene): ~85%

PS-3082: murine ICAM-1 phosphorothioate antisense TGCATCCCCCAGGCCACCAT (SEQ ID No 1) (DNA, all phosphorothioate, methylation of C not given here)
reduction of the degree of inflammation (ICAM-1 gene): around 70%

CCCCCCCC/C=C\CCCCCCCC(=O)OCC(CN(C)C)OC(=O)CCCCCCC/C=C\CCCCCCCC (stereo not drawn) [DODAP, 1,2-dioleoyloxy-3-dimethylaminopropane]
pKa (pKa of amino lipid): 6.53

VEGF-R1: human VEGF-R 1 ribozyme GAGUUGCUGAUGAGGCCGAAAGGCCGAAAGUCUG (SEQ ID No 16) (GAGUUGCUGAUGAGGCCGAAAGGCCGAAAGUCUG; chemistry not fully specified)
encapsulation efficiency ([1]; 20 mM citrate, FIG. 20): over 50%
